Data taken from the supplement of paper PMC11061612.

Experiments:
Experiment in all cases: combination Emax (second highest fraction inhibited in the dose matrix, 72 h); higher = more inhibition; extreme values may be limits of the assay
[1] = system: COR-L23 (Non-Small Cell Lung Carcinoma)
How it was run: (§1)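 Cell lines grown in DMEM/F12 or RPMI with 10% FBS were plated in 1536-well plates and held 24 hours at 37°C, 5% CO2 before 72 hours of exposure to two-drug dose matrices, with DMSO typically at 0.2%. CellTiter-Glo 2.0 luminescence gave viability, which was converted to inhibition. Vehicle wells were set to 0 and blank wells to 1. Combination Emax is the second-highest inhibition in the matrix, and Bliss excess is the observed combination effect minus the expected EA + EB − EA·EB, where EA and EB are the single-agent effects.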

[2] = system: COR-L95 (Small Cell Lung Carcinoma)
How it was run: as §1

[3] = system: CTV-1 (T-Lymphoblastic Leukemia)
How it was run: as §1

[4] = system: DMS-273 (Small Cell Lung Carcinoma)
How it was run: as §1

[5] = system: DOV13 (Ovarian Carcinoma)
How it was run: as §1

[6] = system: HPAC (Pancreatic Carcinoma)
How it was run: as §1

[7] = system: HT-29 (Colorectal Carcinoma)
How it was run: as §1

[8] = system: KM-H2 (Hodgkin's Lymphoma)
How it was run: as §1

[9] = system: MDA-MB-157 (Breast Carcinoma)
How it was run: as §1

[10] = system: MDA-MB-231 (Breast Carcinoma)
How it was run: as §1

[11] = system: NCI-H1694 (Small Cell Lung Carcinoma)
How it was run: as §1

[12] = system: NCI-H1781 (Lung Adenocarcinoma)
How it was run: as §1

NCI-H2595 (Mesothelioma) = system: NCI-H2595 (Mesothelioma)
How it was run: as §1

[13] = system: OCI-AML2 (Acute Myeloid Leukemia)
How it was run: as §1

SN12C (Kidney Carcinoma) = system: SN12C (Kidney Carcinoma)
How it was run: as §1

[14] = system: SNU-C5 (Colorectal Carcinoma)
How it was run: as §1

[15] = system: SW780 (Bladder Carcinoma)
How it was run: as §1

[16] = system: TE-5 (Esophageal Squamous Cell Carcinoma)
How it was run: as §1

[17] = system: TGBC24TKB (Biliary Tract Carcinoma)
How it was run: as §1

[18] = system: U-266 (Plasma Cell Myeloma)
How it was run: as §1

Row | Compound | combination Emax [1] | combination Emax [2] | combination Emax [3] | combination Emax [4] | combination Emax [5] | combination Emax [6] | combination Emax [7] | combination Emax [8] | combination Emax [9] | combination Emax [10] | combination Emax [11] | combination Emax [12] | combination Emax (NCI-H2595 (Mesothelioma)) | combination Emax [13] | combination Emax (SN12C (Kidney Carcinoma)) | combination Emax [14] | combination Emax [15] | combination Emax [16] | combination Emax [17] | combination Emax [18]
1 | CN(C)CCCOc1ccc(-c2ccc3ncc4c(c3c2)n(C2CCOCC2)c(=O)n4C)cn1 [AZD0156] + C=CCn1c(=O)c2cnc(Nc3ccc(N4CCN(C)CC4)cc3)nc2n1-c1cccc(C(C)(C)O)n1 [AZD1775] (first compound max 1 µM, partner max 1 µM) | 0.298 | 0.623 | 0.962 | 0.589 | 0.814 | 0.67 | 0.83 | 0.953 | 0.673 | 0.374 | 0.367 | 0.43 | 0.12 | 0.97 | 0.242 | 0.583 | 0.124 | 0.352 | 0.677 | 0.737
2 | C[C@@H](c1ccc2nccn2c1)n1nnc2ncc(-c3cnn(C)c3)nc21 [Savolitinib] + CC1(C)CCC(CN2CCN(c3ccc(C(=O)NS(=O)(=O)c4ccc(NCC5CCOCC5)c([N+](=O)[O-])c4)c(Oc4cnc5[nH]ccc5c4)c3)CC2)=C(c2ccc(Cl)cc2)C1 [Venetoclax] (first compound max 1 µM, 7x7, partner max 1 µM) | 0.111 | 0.586 | 0.091 | 0.239 | 0.143 | 0.143 | 0.149 | 0.15 | 0.11 | 0.306 | 0.102 | 0.208 | 0.227 | 0.93 | 0.219 | 0.183 | 0.11 | 0.123 | 0.215 | 0.259
3 | Cc1c2c(nn1C)CSCc1cc(n(C)n1)CSc1cc(c3ccccc3c1)OCCCc1c(C(=O)O)n(C)c3c-2c(Cl)ccc13 [AZD5991] + CCN(CCO)CCCOc1ccc2c(Nc3cc(CC(=O)Nc4cccc(F)c4)[nH]n3)ncnc2c1 [AZD2811] (first compound max 1 µM, 7x7, partner max 1 µM) | 0.201 | 0.449 | 0.278 | 0.993 | 0.603 | 0.623 | 0.383 | 0.271 | 0.846 | 0.321 | 0.985 | 0.875 | 0.324 | 1 | 0.387 | 0.288 | 0.213 | 0.261 | 0.543 | 0.945
4 | NC1(C(=O)N[C@@H](CCO)c2ccc(Cl)cc2)CCN(c2ncnc3[nH]ccc23)CC1 [Capivasertib] + CC(=O)c1c(C)c2cnc(Nc3ccc(N4CCNCC4)cn3)nc2n(C2CCCC2)c1=O [Palbociclib] (first compound max 10 µM, 7x7, partner max 10 µM) | 0.442 | 0.172 | 0.897 | 0.817 | 0.588 | 0.589 | 0.577 | 0.513 | 0.24 | 0.577 | 0.141 | 0.479 | 0.214 | 0.804 | 0.17 | 0.567 | 0.248 | 0.359 | 0.556 | 0.254
5 | NC1(C(=O)N[C@@H](CCO)c2ccc(Cl)cc2)CCN(c2ncnc3[nH]ccc23)CC1 [Capivasertib] + COc1nnc2ccc(N3CCC(c4ccc(OCCN5CCN(C)C(=O)[C@H]5C)cc4)CC3)nn12 [AZD5153] (first compound max 10 µM, 7x7, partner max 1 µM) | 0.552 | 0.399 | 1 | 0.884 | 0.535 | 0.68 | 0.753 | 0.546 | 0.389 | 0.703 | 0.523 | 0.527 | 0.301 | 1 | 0.152 | 0.665 | 0.226 | 0.609 | 0.789 | 0.38
6 | COc1nnc2ccc(N3CCC(c4ccc(OCCN5CCN(C)C(=O)[C@H]5C)cc4)CC3)nn12 [AZD5153] + Cn1cnc2c(F)c(Nc3ccc(Br)cc3Cl)c(C(=O)NOCCO)cc21 [Selumetinib] (first compound max 1 µM, 7x7, partner max 10 µM) | 0.422 | 0.218 | 0.99 | 0.71 | 0.482 | 0.82 | 0.848 | 0.299 | 0.546 | 0.73 | 0.234 | 0.327 | 0.364 | 1 | 0.277 | 0.619 | 0.537 | 0.429 | 0.893 | 0.542
7 | NC1(C(=O)N[C@@H](CCO)c2ccc(Cl)cc2)CCN(c2ncnc3[nH]ccc23)CC1 [Capivasertib] + Cn1cnc2c(F)c(Nc3ccc(Br)cc3Cl)c(C(=O)NOCCO)cc21 [Selumetinib] (first compound max 10 µM, 7x7, partner max 10 µM) | 0.609 | 0.22 | 0.852 | 0.837 | 0.371 | 0.783 | 0.783 | 0.292 | 0.292 | 0.751 | 0.204 | 0.695 | 0.29 | 1 | 0.352 | 0.656 | 0.421 | 0.56 | 0.556 | 0.694
8 | C[C@@H](c1ccc2nccn2c1)n1nnc2ncc(-c3cnn(C)c3)nc21 [Savolitinib] + Cc1c2c(nn1C)CSCc1cc(n(C)n1)CSc1cc(c3ccccc3c1)OCCCc1c(C(=O)O)n(C)c3c-2c(Cl)ccc13 [AZD5991] (first compound max 1 µM, 7x7, partner max 1 µM) | 0.142 | 0.163 | 0.113 | 0.933 | 0.153 | 0.168 | 0.142 | 0.11 | 0.639 | 0.284 | 0.371 | 0.32 | 0.302 | 0.88 | 0.197 | 0.177 | 0.164 | 0.147 | 0.182 | 0.859
9 | CCN(CCO)CCCOc1ccc2c(Nc3cc(CC(=O)Nc4cccc(F)c4)[nH]n3)ncnc2c1 [AZD2811] + C=CCn1c(=O)c2cnc(Nc3ccc(N4CCN(C)CC4)cc3)nc2n1-c1cccc(C(C)(C)O)n1 [AZD1775] (first compound max 1 µM, partner max 1 µM) | 0.349 | 0.655 | 0.969 | 0.827 | 0.823 | 0.643 | 0.82 | 0.938 | 0.729 | 0.394 | 0.374 | 0.819 | 0.0802 | 0.991 | 0.175 | 0.59 | 0.186 | 0.313 | 0.651 | 0.605
10 | C=CCn1c(=O)c2cnc(Nc3ccc(N4CCN(C)CC4)cc3)nc2n1-c1cccc(C(C)(C)O)n1 [AZD1775] + O=C(c1cc(Cc2n[nH]c(=O)c3ccccc23)ccc1F)N1CCN(C(=O)C2CC2)CC1 [Olaparib] (first compound max 1 µM, partner max 10 µM) | 0.224 | 0.639 | 0.977 | 0.549 | 0.802 | 0.649 | 0.818 | 0.961 | 0.723 | 0.582 | 0.404 | 0.538 | 0.179 | 0.992 | 0.335 | 0.567 | 0.209 | 0.411 | 0.687 | 0.763
11 | Cc1c2c(nn1C)CSCc1cc(n(C)n1)CSc1cc(c3ccccc3c1)OCCCc1c(C(=O)O)n(C)c3c-2c(Cl)ccc13 [AZD5991] + C[C@@H]1COCCN1C2=NC(=NC(=C2)C3(CC3)[S@](=N)(=O)C)C4=C5C=CNC5=NC=C4 [AZD6738] (first compound max 1 µM, 7x7, partner max 10 µM) | 0.57 | 0.638 | 0.781 | 0.98 | 0.926 | 0.683 | 0.836 | 0.814 | 0.966 | 0.546 | 1 | 0.752 | 0.299 | 1 | 0.228 | 0.795 | 0.255 | 0.494 | 0.672 | 0.95
12 | CC(=O)c1c(C)c2cnc(Nc3ccc(N4CCNCC4)cn3)nc2n(C2CCCC2)c1=O [Palbociclib] + CC1(C)CCC(CN2CCN(c3ccc(C(=O)NS(=O)(=O)c4ccc(NCC5CCOCC5)c([N+](=O)[O-])c4)c(Oc4cnc5[nH]ccc5c4)c3)CC2)=C(c2ccc(Cl)cc2)C1 [Venetoclax] (first compound max 10 µM, 7x7, partner max 1 µM) | 0.106 | 0.709 | 0.921 | 0.351 | 0.752 | 0.204 | 0.399 | 0.383 | 0.115 | 0.408 | 0.404 | 0.118 | 0.104 | 1 | 0.0441 | 0.468 | 0.108 | 0.0622 | 0.274 | 0.35
13 | Cc1cc2ncnn2cc1Nc1ncc2c(n1)n(C1CCOCC1)c(=O)n2C [AZD7648] + O=C(c1cc(Cc2n[nH]c(=O)c3ccccc23)ccc1F)N1CCN(C(=O)C2CC2)CC1 [Olaparib] (first compound max 10 µM, 7x7, partner max 10 µM) | 0.212 | 0.363 | 0.279 | 0.553 | 0.386 | 0.0971 | 0.0989 | 0.349 | 0.0869 | 0.266 | 0.152 | 0.413 | 0.116 | 0.723 | 0.138 | 0.24 | 0.165 | 0.162 | 0.276 | 0.335
